Measurements reported in PubChem BioAssay AID256 (DTP/NCI, 2004).
“And” between values parts separate entries of the source, which are not always exact repeats. Identical values can stand only once. Inconclusive results and toxic doses are left out. How the source made its calls: active means survival T/C of 150% or more; inactive means T/C below 125% in these data.

System: CD2F1 mice, L1210 leukemia ip, survival T/C
Experiment: NCI In Vivo Anticancer Drug Screen. Data for tumor model L1210 Leukemia (intraperitoneal) in CD2F1 (CDF1) mice
Conditions: higher = longer survival
In short: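 Compound-dosed mice with transplantable tumor versus matched vehicle controls; endpoint ratio T/C reported.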

[1] = endpoint: mean survival time, dose: 100.0 mg/kg/injection, schedule: Q01DX009 (ip), vehicle: saline with Tween-80
[2] = endpoint: mean survival time, dose: 200.0 mg/kg/injection, schedule: Q01DX009 (ip), vehicle: saline with Tween-80
[3] = endpoint: mean survival time, dose: 400.0 mg/kg/injection, schedule: Q01DX009 (ip), vehicle: saline with Tween-80
[4] = endpoint: mean survival time, dose: 100.0 mg/kg/injection, schedule: Q04DX003 (ip), vehicle: saline
[5] = endpoint: mean survival time, dose: 200.0 mg/kg/injection, schedule: Q04DX003 (ip), vehicle: saline
[6] = endpoint: mean survival time, dose: 100.0 mg/kg/injection, schedule: Q04DX003 (ip), vehicle: saline with Tween-80
[7] = endpoint: mean survival time, dose: 200.0 mg/kg/injection, schedule: Q04DX003 (ip), vehicle: saline with Tween-80
[8] = endpoint: mean survival time, dose: 50.0 mg/kg/injection, schedule: Q01DX009 (ip), vehicle: saline with Tween-80
[9] = endpoint: mean survival time, dose: 400.0 mg/kg/injection, schedule: Q04DX003 (ip), vehicle: saline with Tween-80
[10] = endpoint: mean survival time, dose: 100.0 mg/kg/injection, schedule: Q01DX001 (ip), vehicle: saline with Tween-80
[11] = endpoint: mean survival time, dose: 200.0 mg/kg/injection, schedule: Q01DX001 (ip), vehicle: saline with Tween-80
[12] = endpoint: mean survival time, dose: 400.0 mg/kg/injection, schedule: Q01DX001 (ip), vehicle: saline with Tween-80
[13] = endpoint: mean survival time, dose: 100.0 mg/kg/injection, schedule: Q04DX002 (ip), vehicle: saline with Tween-80
[14] = endpoint: mean survival time, dose: 200.0 mg/kg/injection, schedule: Q04DX002 (ip), vehicle: saline with Tween-80
[15] = endpoint: mean survival time, dose: 400.0 mg/kg/injection, schedule: Q04DX002 (ip), vehicle: saline with Tween-80

Measured: T/C

CCOC(=O)Nc1cccnc1
inactive: endpoint: mean survival time, dose: 75.0 mg/kg/injection, schedule: Q01DX001 (ip), vehicle: saline with Tween-80 104 % of control | endpoint: mean survival time, dose: 150.0 mg/kg/injection, schedule: Q01DX001 (ip), vehicle: saline with Tween-80 98 % of control | endpoint: mean survival time, dose: 300.0 mg/kg/injection, schedule: Q01DX001 (ip), vehicle: saline with Tween-80 106 % of control

CC(=O)OCC1OC(Nc2nncs2)C(OC(C)=O)C1OC(C)=O (stereo not given)
inactive: endpoint: median survival time, dose: 12.5 mg/kg/injection, schedule: Q01DX005 (ip), vehicle: distilled water + Tween-80 97 % of control | endpoint: median survival time, dose: 25.0 mg/kg/injection, schedule: Q01DX005 (ip), vehicle: distilled water + Tween-80 96 % of control | endpoint: median survival time, dose: 50.0 mg/kg/injection, schedule: Q01DX005 (ip), vehicle: distilled water + Tween-80 102 % of control | endpoint: median survival time, dose: 100.0 mg/kg/injection, schedule: Q01DX005 (ip), vehicle: distilled water + Tween-80 100 % of control | endpoint: median survival time, dose: 200.0 mg/kg/injection, schedule: Q01DX005 (ip), vehicle: distilled water + Tween-80 100 % of control

C=C1C(O)C2(O)OCC34C(CC5C(C)=CC(=O)C(O)C5(C)C23)OC(=O)C(OC(=O)C(C)(O)CC)C14 (stereo not given)
inactive: endpoint: mean survival time, dose: 0.25 mg/kg/injection, schedule: Q01DX009 (ip), vehicle: saline + alcohol 98 % of control | endpoint: mean survival time, dose: 0.5 mg/kg/injection, schedule: Q01DX009 (ip), vehicle: saline + alcohol 100 % of control | endpoint: mean survival time, dose: 1.0 mg/kg/injection, schedule: Q01DX009 (ip), vehicle: saline + alcohol 102 % of control | endpoint: mean survival time, dose: 2.0 mg/kg/injection, schedule: Q01DX009 (ip), vehicle: saline + alcohol 90 % of control

CC(=O)Nc1cccc(/C=C/C=C/c2cccc([N+](=O)[O-])c2)c1
inactive: endpoint: mean survival time, dose: 100.0 mg/kg/injection, schedule: Q01DX001 (ip), vehicle: Klucel (hydroxypropylcellulose) (HPC) 103 % of control | endpoint: mean survival time, dose: 200.0 mg/kg/injection, schedule: Q01DX001 (ip), vehicle: Klucel (hydroxypropylcellulose) (HPC) 97 % of control | endpoint: mean survival time, dose: 400.0 mg/kg/injection, schedule: Q01DX001 (ip), vehicle: Klucel (hydroxypropylcellulose) (HPC) 90 % of control

CCOC(=O)C(CO)(NC(C)=O)C(=O)OCC
inactive: [1] 94 % of control | [2] 98 % of control | [3] 105 % of control

O=C(O)C(CO)C(CO)C(=O)O (stereo not given)
inactive: endpoint: mean survival time, dose: 50.0 mg/kg/injection, schedule: Q01DX001 (ip), vehicle: saline 107 % of control | endpoint: mean survival time, dose: 100.0 mg/kg/injection, schedule: Q01DX001 (ip), vehicle: saline 121 % of control | endpoint: mean survival time, dose: 200.0 mg/kg/injection, schedule: Q01DX001 (ip), vehicle: saline 101 % of control | endpoint: mean survival time, dose: 400.0 mg/kg/injection, schedule: Q01DX001 (ip), vehicle: saline 106 % of control

CO[Si](c1ccccc1)(c1ccccc1)c1cccc2ccccc12
inactive: endpoint: mean survival time, dose: 75.0 mg/kg/injection, schedule: Q04DX003 (ip), vehicle: saline 89 % of control | endpoint: mean survival time, dose: 150.0 mg/kg/injection, schedule: Q04DX003 (ip), vehicle: saline 91 % of control | endpoint: mean survival time, dose: 300.0 mg/kg/injection, schedule: Q04DX003 (ip), vehicle: saline 95 % of control

CCCCCCOC(=O)C[n+]1ccc(C(N)=O)cc1
inactive: [4] 101 % of control | [5] 94 % of control

COC(=O)c1cncn1C(C)c1cccc2ccccc12 (stereo not given)
inactive: [6] 108 % of control | [7] 100 % of control

CC/C=C(\CC)C(=O)O
inactive: [8] 109 % of control | [1] 105 % of control | [2] 105 % of control

CC(C#N)CCCC#N (stereo not given)
inactive: endpoint: mean survival time, dose: 25.0 mg/kg/injection, schedule: Q01DX009 (ip), vehicle: saline with Tween-80 100 % of control | [8] 102 % of control | [6] 101 % of control

COc1cc2ccc(/C(C)=N/OC(C)=O)cc2cc1OC
inactive: [1] 100 % of control | [2] 102 % of control | [3] 97 % of control

CC1OCOC(C)C1C (stereo not given)
inactive: endpoint: mean survival time, dose: 50.0 mg/kg/injection, schedule: Q01DX005 (ip), vehicle: saline 108 % of control | [8] 91 % of control | endpoint: mean survival time, dose: 50.0 mg/kg/injection, schedule: Q04DX002 (ip), vehicle: saline + alcohol 103 % of control | endpoint: mean survival time, dose: 100.0 mg/kg/injection, schedule: Q01DX005 (ip), vehicle: saline 108 % of control | [1] 91 % of control | endpoint: mean survival time, dose: 100.0 mg/kg/injection, schedule: Q04DX002 (ip), vehicle: saline + alcohol 95 % of control | endpoint: mean survival time, dose: 200.0 mg/kg/injection, schedule: Q01DX005 (ip), vehicle: saline 108 % of control | [2] 91 % of control | endpoint: mean survival time, dose: 200.0 mg/kg/injection, schedule: Q04DX002 (ip), vehicle: saline + alcohol 88 % of control | endpoint: mean survival time, dose: 400.0 mg/kg/injection, schedule: Q01DX005 (ip), vehicle: saline 102 % of control | [3] 98 % of control | endpoint: mean survival time, dose: 400.0 mg/kg/injection, schedule: Q04DX002 (ip), vehicle: saline + alcohol 95 % of control

Cc1cccc(NC(=O)NCCBr)c1
inactive: [6] 100 % of control | [7] 88 % of control | [9] 92 % of control

CCOCCNCc1ccc(Cl)c(Cl)c1
inactive: [6] 93 % of control | [7] 94 % of control

C/C(=N\Nc1ccc([N+](=O)[O-])cc1[N+](=O)[O-])C1CCC(=O)O1 (stereo not given)
inactive: endpoint: mean survival time, dose: 50.0 mg/kg/injection, schedule: Q01DX001 (ip), vehicle: saline with Tween-80 109 % of control | [10] 103 % of control | [11] 103 % of control

CCOC(=O)Cc1cnc(SC)nc1Nc1ccc(F)cc1
inactive: [10] 90 % of control | [11] 95 % of control

COc1ccc(-n2c(=S)[nH]c3ccc(C)cc3c2=O)cc1
inactive: [1] 97 % of control | [2] 100 % of control | [3] 91 % of control

O=C(O)c1cc(Cl)[nH]c(=O)c1
inactive: [6] 91 % of control | [7] 91 % of control | [9] 91 % of control

CC(N)(CO)C(=O)O (stereo not given)
inactive: [4] 108 % of control | [5] 113 % of control | endpoint: mean survival time, dose: 400.0 mg/kg/injection, schedule: Q04DX003 (ip), vehicle: saline 103 % of control

O=C1Nc2ccccc2/C1=N/N=C/c1cc(Cl)cc(Cl)c1O
inactive: [10] 94 % of control | [12] 95 % of control

CCC1(C)C(=O)c2ccccc2N(C)C1=O (stereo not given)
inactive: [10] 95 % of control | [1] 93 % of control | [13] 103 % of control and 106 % of control | [6] 97 % of control | [11] 100 % of control | [2] 93 % of control and 102 % of control | [14] 104 % of control and 110 % of control | [7] 100 % of control | [12] 95 % of control | [3] 101 % of control and 102 % of control | [15] 109 % of control and 110 % of control | [9] 100 % of control

O=C(O)C(=O)O.O=C(O)C(=O)O.O=C(O)C(=O)O.[Fe]
inactive: endpoint: mean survival time, dose: 25.0 mg/kg/injection, schedule: Q04DX002 (ip), vehicle: saline with Tween-80 91 % of control | endpoint: mean survival time, dose: 50.0 mg/kg/injection, schedule: Q04DX002 (ip), vehicle: saline with Tween-80 91 % of control | [13] 87 % of control

N#CCCOCCC#N
inactive: endpoint: mean survival time, dose: 100.0 mg/kg/injection, schedule: Q01DX009 (ip), vehicle: saline 100 % of control | endpoint: mean survival time, dose: 200.0 mg/kg/injection, schedule: Q01DX009 (ip), vehicle: saline 98 % of control | endpoint: mean survival time, dose: 400.0 mg/kg/injection, schedule: Q01DX009 (ip), vehicle: saline 102 % of control

CC1C2C=CC1C(c1c3ccc(=O)cc-3oc3cc(O)ccc13)C2C(=O)O (stereo not given)
inactive: [6] 103 % of control | [7] 97 % of control | [9] 111 % of control

Cc1ccccc1NC(=O)Oc1cccc(OC(=O)c2ccccc2)c1
inactive: [13] 103 % of control | [14] 103 % of control | [15] 91 % of control
